Measurements published in article PMC8026785, “The pharmacokinetics of [^18F]UCB-H revisited in the healthy non-human primate brain” (EJNMMI Research, 2021).
Blank lines part the entries; values can stand above or below the molecule they belong to.

How the values were obtained:
SV2A [1] = tested on: SV2A; parameters: method as in PMID 30084043, PMID 31728839; conditions: cited from earlier work
SV2A [2] = biological target: T1, SV2A (Macaca fascicularis, UniProt Q4R4X3); experiment: Displacement PET studies of [^18F]UCB-H; format: in vivo, cynomolgus monkeys (Macaca fascicularis)
T1 construct: The current study evaluates [^18F]UCB-H pharmacokinetics in healthy NHPs; from tissue; host or cells: brain of living healthy cynomolgus monkeys (in vivo PET)
T1 sequence (Q4R4X3 whole entry): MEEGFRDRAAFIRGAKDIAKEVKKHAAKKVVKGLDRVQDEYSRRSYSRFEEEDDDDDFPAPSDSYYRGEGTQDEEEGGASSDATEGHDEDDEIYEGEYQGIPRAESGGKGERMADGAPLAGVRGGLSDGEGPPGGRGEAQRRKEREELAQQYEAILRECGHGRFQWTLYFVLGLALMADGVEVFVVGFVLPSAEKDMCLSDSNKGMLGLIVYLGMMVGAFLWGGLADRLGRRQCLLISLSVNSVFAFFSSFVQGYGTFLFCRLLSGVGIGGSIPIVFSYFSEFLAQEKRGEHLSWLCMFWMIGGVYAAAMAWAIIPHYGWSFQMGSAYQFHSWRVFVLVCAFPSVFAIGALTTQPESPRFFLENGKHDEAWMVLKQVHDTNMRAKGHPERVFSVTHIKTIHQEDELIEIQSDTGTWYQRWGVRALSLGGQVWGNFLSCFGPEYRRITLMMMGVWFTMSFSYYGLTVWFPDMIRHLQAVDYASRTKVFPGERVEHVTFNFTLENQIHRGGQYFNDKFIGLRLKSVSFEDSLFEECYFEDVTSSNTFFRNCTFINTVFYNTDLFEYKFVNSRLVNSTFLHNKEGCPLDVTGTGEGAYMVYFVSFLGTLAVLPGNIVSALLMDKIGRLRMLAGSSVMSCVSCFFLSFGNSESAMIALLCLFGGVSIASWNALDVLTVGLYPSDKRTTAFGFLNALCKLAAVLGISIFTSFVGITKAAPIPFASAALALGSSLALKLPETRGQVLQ
Experimental: All four non-human primates (NHP) underwent a 2-h (2 h) test and retest PET scan; two NHP underwent an additional 4-h (4 h) retest PET scan. Three NHP underwent one 4-h (4 h) displacement PET scan. Arterial blood sampling was performed during test and retest scans with PET imaging spaced by at least 3 weeks between each scan. To this end, the femoral artery opposite to the saphenous vein used for radioligand injection was cannulated. For the 2-h (2 h) scans, we collected in total 28 blood samples of 1 mL: 16 samples during the first 5 min followed by […] every 5 min and […] every 10 min. For the 4 h scans, we collected an additional 6 samples every 20 min during the last two hours (34 samples in total). Larger samples (2 – 3 mL) were collected at 5, 15, 30, 60, 90, 120 min (2 h) and at 180, 240 min (4 h) for metabolite analysis. Displacement of [^18F]UCB-H was done by intravenous (IV) administration 90 min after [^18F]UCB-H injection of a bolus of 30 mg/kg LEV, or of 80 µg/kg (≈250 nmol/kg) or 5 mg/kg (≈15 µmol/kg) of cold [^19F]-UCB-H. Full experimental design of all NHP is outlined in Additional file 1: Table 1.
Solvents and LEV (C8H14N2O2; MM 170.21 g/mol) were obtained at Sigma-Aldrich® (France), and [^19F]-UCB-H (C16H12F4N2O; MM 324.28 g/mol) was synthesised as previously described. Injectable solutions of [^19F]-UCB-H for displacement studies were prepared with a mixture of Tetrahydrofuran (THF), Médialipide® and glucose at 2.5% as previously described. LEV was dissolved in a glucose solution of 2.5% to reach a concentration of 90 mg/mL.
PET image analysis was performed using PMOD software version 3.8 (PMOD Technologies Ltd., Zurich, Suisse). After individual co-registration of PET-MR images, a cynomolgus atlas published by Ballanger and coworkers was normalized to PET images to extract time activity curves in different brain regions. Volumes of interest (VOI) were cerebral white matter (16.7 cm^3), striatum (0.24 cm^3), thalamus (0.89 cm^3), cerebellum (3.83 cm^3), frontal—(2.50 cm^3), parietal—(5.35 cm^3), and temporal (8.22 cm^3) cortex, and whole brain (72.2 cm^3) as a composite region of all regions in the atlas. [^18F]UCB-H pharmacokinetics were evaluated by analyzing the time activity curves of the test- and retest scans using 1- and 2-tissue compartment models (unconstrained and constrained with global K1/k2 coupled fit across all regions, further referred to as 2TCM and 2TCM-c), and Logan graphical analysis with a fixed t* at 60 min [33] using the arterial plasma input function corrected for radio-metabolites to derive the volume of distribution in each region. Percentage standard error (%SE) was estimated from the theoretical parameter covariance matrix. Only reliable estimates (%SE less than 25%) were included in the current analyses. For the three drug studies, percent displacement of the total activity in the whole brain was estimated relative to an average baseline constructed from the two 4 h baseline studies. Briefly, Standardized Uptake Value (SUV) time activity curves (TACs) were calculated for the two baseline and the three displacement studies. Then, each curve was normalized to the SUV at t = 90 min, corresponding to the timeframe immediately before the administration of the drugs in the displacement studies. Baseline curves were averaged and the percent displacement of total activity was calculated as (baseline-displacement)/baseline at a given time post drug administration (see “Results”).

SV2A [3] = biological target: SV2A; parameters: method as in PMID 31728839; conditions: human brain; read-out: in vitro Ki; cited from earlier work
SV2A [4] = biological target: SV2A; parameters: method as in PMID 26848175; conditions: NHP; read-out: in vivo KD; cited from earlier work

SMILES: Cc1cnccc1CN1CC(c2cc(F)cc([18F])c2)CC1=O (stereo not drawn) [[^18F]MNI-1128]
affinity (SV2A [1]): low affinity

SMILES: Cc1cnccc1CN1C[C@@H](c2cc(F)cc([18F])c2)CC1=O [[^18F]MNI-1126]
affinity (SV2A [1]): high affinity

SMILES: CC[C@@H](C(N)=O)N1CCCC1=O [LEV, levetiracetam, reference compound]
displacement of [^18F]UCB-H total uptake (SV2A [2]; 30 mg/kg i.v. at 90 min, estimated 150 min (2.5 h) after injection): ~ 40% | receptor occupancy at 30 mg/kg (SV2A [2]; cynomolgus monkey, iv, read-out: SV2A occupancy): 75 to 80%

displacement of [^18F]UCB-H total uptake (SV2A [2]; 5 mg/kg i.v. at 90 min, estimated 35 min after injection of cold compound): 50% | SV2A occupancy expected (SV2A [2]; 5 mg/kg, KD 30 nM): > 98% | maximum free concentration in brain (SV2A [2]; after 5.0 mg/kg, based on brain uptake curves and fND ~6%): ~2.5 µM
SMILES: O=C1CC(c2cc(F)c(F)c(F)c2)CN1Cc1ccncc1F (stereo not drawn) [[^19F]UCB-H]
Ki (SV2A [3]): 9 nM | Kd (SV2A [4]): 30 nM
